According to patent publication US12662489B2 (Sitryx Therapeutics Limited, priority 2023, dated 2026):

Legend:
[1] = system: human CD4+ T cells; experiment: Human CD4+ T-cell proliferation assay (CFSE, CD3/28 beads); conditions: read-out: Proliferation IC50
[2] = molecular target: T1, MTHFD2 recombinant human enzyme (Homo sapiens, UniProt P13995); experiment: MTHFD2 inhibition assay (NAD(P)H-Glo luminescence); conditions: for MTHFD1/MTHFD2 IC50 ratio: selectivity of MTHFD2 inhibition over MTHFD1, band
T1 sequence (P13995 36-350): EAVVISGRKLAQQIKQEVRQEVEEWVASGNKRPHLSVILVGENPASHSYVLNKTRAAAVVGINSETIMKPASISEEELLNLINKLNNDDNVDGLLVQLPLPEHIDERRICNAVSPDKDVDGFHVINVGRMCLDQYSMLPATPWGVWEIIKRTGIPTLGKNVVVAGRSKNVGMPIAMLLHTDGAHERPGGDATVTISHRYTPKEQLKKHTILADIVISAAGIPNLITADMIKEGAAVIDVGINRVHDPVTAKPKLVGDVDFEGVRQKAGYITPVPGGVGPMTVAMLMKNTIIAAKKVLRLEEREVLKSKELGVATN

[3] = molecular target: T2, MTHFD1 recombinant human enzyme (Homo sapiens, UniProt P11586); experiment: MTHFD1 inhibition assay (NAD(P)H-Glo luminescence); conditions: MTHFD1 IC50, recombinant human enzyme 200 nM, NADP, band
T2 sequence (P11586 2-291 limits assumed): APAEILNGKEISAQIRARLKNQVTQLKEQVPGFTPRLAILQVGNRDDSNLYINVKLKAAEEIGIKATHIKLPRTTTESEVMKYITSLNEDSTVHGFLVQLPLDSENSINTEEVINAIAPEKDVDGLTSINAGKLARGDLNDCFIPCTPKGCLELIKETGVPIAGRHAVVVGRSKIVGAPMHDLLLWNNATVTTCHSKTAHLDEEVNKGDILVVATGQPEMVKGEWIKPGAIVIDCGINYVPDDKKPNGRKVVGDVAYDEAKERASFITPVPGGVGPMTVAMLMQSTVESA

With COC[C@H]1CN(c2cc(C)c3c4c(c(=O)oc3c2C)CN(C(=O)c2cc(N(C)C)c(C(=O)NS(=O)(=O)N3CC[C@H](F)C3)cc2F)CC4)CCN1C [Example 254, 2-(dimethylamino)-5-fluoro-N-(((S)-3-fluoropyrrolidin-1-yl)sulfonyl)-4-(8-((R)-3-(methoxymethyl)-4-methylpiperazin-1-yl)-7,10-dimethyl-5-oxo-1,3,4,5-tetrahydro-2H-chromeno[3,4-c]pyridine-3-carbonyl)benzamide] the IC50 [1] was 10 to 30 nM, the IC50 [2] was 1 to 10 nM and the “MTHFD1/MTHFD2 IC50 ratio” value [2] was “J (>30)”. The IC50 [3] was 100 to 1000 nM.

COC[C@H]1CN(c2cc(C)c3c4c(c(=O)oc3c2C)CN(C(=O)c2cc(N(C)C)c(C(=O)NS(=O)(=O)N3C5CCC3CC5)cc2F)CC4)CCN1C [Example 255, (R)-N-((7-azabicyclo[2.2.1]heptan-7-yl)sulfonyl)-2-(dimethylamino)-5-fluoro-4-(8-(3-(methoxymethyl)-4-methylpiperazin-1-yl)-7,10-dimethyl-5-oxo-1,3,4,5-tetrahydro-2H-chromeno[3,4-c]pyridine-3-carbonyl)benzamide] was tested, and the IC50 [1] was 10 to 30 nM, the IC50 [2] was 1 to 10 nM and the “MTHFD1/MTHFD2 IC50 ratio” value [2] was “J (>30)”. For the same compound, the IC50 [3] was 1000 to 5000 nM.

With COC[C@H]1CN(c2cc(C)c3c4c(c(=O)oc3c2C)CN(C(=O)c2cc(N(C)C)c(C(=O)NS(=O)(=O)N3C5CCC3COC5)cc2F)CC4)CCN1C [Example 256, N-((3-oxa-8-azabicyclo[3.2.1]octan-8-yl)sulfonyl)-2-(dimethylamino)-5-fluoro-4-(8-((R)-3-(methoxymethyl)-4-methylpiperazin-1-yl)-7,10-dimethyl-5-oxo-1,3,4,5-tetrahydro-2H-chromeno[3,4-c]pyridine-3-carbonyl)benzamide] the IC50 [1] was 10 to 30 nM, the IC50 [2] was 1 to 10 nM and the “MTHFD1/MTHFD2 IC50 ratio” value [2] was “J (>30)”. It also gave an IC50 [3] of 1000 to 5000 nM.

With COC[C@H]1CN(c2cc(C)c3c4c(c(=O)oc3c2C)CN(C(=O)c2cc(N(C)C)c(C(=O)NS(=O)(=O)N(C)C3CC3)cc2F)CC4)CCN1C [Example 257, (R)-N-(N-cyclopropyl-N-methylsulfamoyl)-2-(dimethylamino)-5-fluoro-4-(8-(3-(methoxymethyl)-4-methylpiperazin-1-yl)-7,10-dimethyl-5-oxo-1,3,4,5-tetrahydro-2H-chromeno[3,4-c]pyridine-3-carbonyl)benzamide] the IC50 [1] was 1 to 10 nM, the IC50 [2] was 1 to 10 nM and the “MTHFD1/MTHFD2 IC50 ratio” value [2] was “J (>30)”. The IC50 [3] was 100 to 1000 nM.

In the case of CCOc1cc(C(=O)N2CCc3c(c(=O)oc4c(C)c(N5CCN(C)[C@@H](COC)C5)cc(Cl)c34)C2)c(F)cc1C(=O)NS(=O)(=O)N1CCCC1 [Example 259, (R)-4-(10-chloro-8-(3-(methoxymethyl)-4-methylpiperazin-1-yl)-7-methyl-5-oxo-1,3,4,5-tetrahydro-2H-chromeno[3,4-c]pyridine-3-carbonyl)-2-ethoxy-5-fluoro-N-(pyrrolidin-1-ylsulfonyl)benzamide], the IC50 [1] is reported as 30 to 100 nM, the IC50 [2] is reported as 1 to 10 nM and the “MTHFD1/MTHFD2 IC50 ratio” value [2] is reported as “J (>30)”. The IC50 [3] was 100 to 1000 nM.

In the case of COC[C@H]1CN(c2cc(Cl)c3c4c(c(=O)oc3c2C)CN(C(=O)c2cc(N(C)C)c(C(=O)NS(=O)(=O)N(C)C)cc2F)CC4)CCN1C [Example 260, (R)-4-(10-chloro-8-(3-(methoxymethyl)-4-methylpiperazin-1-yl)-7-methyl-5-oxo-1,3,4,5-tetrahydro-2H-chromeno[3,4-c]pyridine-3-carbonyl)-2-(dimethylamino)-N-(N,N-dimethylsulfamoyl)-5-fluorobenzamide], the IC50 [1] is reported as 10 to 30 nM, the IC50 [2] is reported as 1 to 10 nM and the “MTHFD1/MTHFD2 IC50 ratio” value [2] is reported as “J (>30)”. The IC50 [3] was 100 to 1000 nM.

In the case of COC[C@H]1CN(c2cc(Cl)c3c4c(c(=O)oc3c2C)CN(C(=O)c2cc(OC)c(C(=O)NS(=O)(=O)N3CCCC3)cc2F)CC4)CCN1C [Example 262, (R)-4-(10-chloro-8-(3-(methoxymethyl)-4-methylpiperazin-1-yl)-7-methyl-5-oxo-1,3,4,5-tetrahydro-2H-chromeno[3,4-c]pyridine-3-carbonyl)-5-fluoro-2-methoxy-N-(pyrrolidin-1-ylsulfonyl)benzamide], the IC50 [1] is reported as 30 to 100 nM, the IC50 [2] is reported as 1 to 10 nM and the “MTHFD1/MTHFD2 IC50 ratio” value [2] is reported as “J (>30)”. The IC50 [3] was 1000 to 5000 nM.

COC[C@H]1CN(c2cc(C)c3c4c(c(=O)oc3c2C)CN(C(=O)c2cc(OC3CC3)c(C(=O)NS(=O)(=O)N3CCCC3)cc2F)CC4)CCN1C [Example 263, (R)-2-cyclopropoxy-5-fluoro-4-(8-(3-(methoxymethyl)-4-methylpiperazin-1-yl)-7,10-dimethyl-5-oxo-1,3,4,5-tetrahydro-2H-chromeno[3,4-c]pyridine-3-carbonyl)-N-(pyrrolidin-1-ylsulfonyl)benzamide] was tested, and the IC50 [1] was 10 to 30 nM, the IC50 [2] was 1 to 10 nM and the “MTHFD1/MTHFD2 IC50 ratio” value [2] was “J (>30)”. For the same compound, the IC50 [3] was 10 to 100 nM.

For COC[C@H]1CN(c2cc(C)c3c4c(c(=O)oc3c2C)CN(C(=O)c2cc(OC3CC3)c(C(=O)NS(=O)(=O)N3CC5CC5C3)cc2F)CC4)CCN1C (stereo partly drawn) [Example 264, N-((3-azabicyclo[3.1.0]hexan-3-yl)sulfonyl)-2-cyclopropoxy-5-fluoro-4-(8-((R)-3-(methoxymethyl)-4-methylpiperazin-1-yl)-7,10-dimethyl-5-oxo-1,3,4,5-tetrahydro-2H-chromeno[3,4-c]pyridine-3-carbonyl)benzamide], the IC50 [1] was 10 to 30 nM, the IC50 [2] was 1 to 10 nM and the “MTHFD1/MTHFD2 IC50 ratio” value [2] was “J (>30)”. The IC50 [3] was 10 to 100 nM.

For COC[C@H]1CN(c2cc(C)c3c4c(c(=O)oc3c2C)CN(C(=O)c2ccc(C(=O)NS(=O)(=O)N3CCCC3)c(F)c2)CC4)CCN1C [Example 265, (R)-2-fluoro-4-(8-(3-(methoxymethyl)-4-methylpiperazin-1-yl)-7,10-dimethyl-5-oxo-1,3,4,5-tetrahydro-2H-chromeno[3,4-c]pyridine-3-carbonyl)-N-(pyrrolidin-1-ylsulfonyl)benzamide], the IC50 [1] was 100 to 1000 nM, the IC50 [2] was 1 to 10 nM and the “MTHFD1/MTHFD2 IC50 ratio” value [2] was “J (>30)”. For the same compound, the IC50 [3] was 100 to 1000 nM.

COC[C@H]1CN(c2cc(C)c3c4c(c(=O)oc3c2C)CN(C(=O)c2cc(F)c(C(=O)NS(=O)(=O)N3CCCC3)cc2OC)CC4)CCN1C [Example 266, (R)-2-fluoro-5-methoxy-4-(8-(3-(methoxymethyl)-4-methylpiperazin-1-yl)-7,10-dimethyl-5-oxo-1,3,4,5-tetrahydro-2H-chromeno[3,4-c]pyridine-3-carbonyl)-N-(pyrrolidin-1-ylsulfonyl)benzamide] was tested, and the IC50 [1] was 1000 to 5000 nM, the IC50 [2] was 1 to 10 nM and the “MTHFD1/MTHFD2 IC50 ratio” value [2] was “J (>30)”. It also gave an IC50 [3] of 100 to 1000 nM.

With CCOc1cc(C(=O)N2CCc3c(c(=O)oc4c(C)c(N5CCN(C)[C@@H](COC)C5)cc(C)c34)C2)c(F)cc1C(=O)NS(=O)(=O)N1C[C@@H]2C[C@H]1CO2 [Example 267, N-(((1S,4S)-2-oxa-5-azabicyclo[2.2.1]heptan-5-yl)sulfonyl)-2-ethoxy-5-fluoro-4-(8-((R)-3-(methoxymethyl)-4-methylpiperazin-1-yl)-7,10-dimethyl-5-oxo-1,3,4,5-tetrahydro-2H-chromeno[3,4-c]pyridine-3-carbonyl)benzamide] the IC50 [1] was 100 to 1000 nM, the IC50 [2] was 1 to 10 nM and the “MTHFD1/MTHFD2 IC50 ratio” value [2] was “J (>30)”. The IC50 [3] was 100 to 1000 nM.

CCOc1cc(C(=O)N2CCc3c(c(=O)oc4c(C)c(N5CCN(C)[C@@H](COC)C5)cc(C)c34)C2)c(F)cc1C(=O)NS(=O)(=O)N1CC[C@H](F)C1 [Example 268, 2-ethoxy-5-fluoro-N-(((S)-3-fluoropyrrolidin-1-yl)sulfonyl)-4-(8-((R)-3-(methoxymethyl)-4-methylpiperazin-1-yl)-7,10-dimethyl-5-oxo-1,3,4,5-tetrahydro-2H-chromeno[3,4-c]pyridine-3-carbonyl)benzamide] was tested, and the IC50 [1] was 1 to 10 nM, the IC50 [2] was 1 to 10 nM and the “MTHFD1/MTHFD2 IC50 ratio” value [2] was “J (>30)”. For the same compound, the IC50 [3] was 100 to 1000 nM.

For COC[C@H]1CN(c2cc(C)c3c4c(c(=O)oc3c2C)CN(C(=O)c2cc(F)c(C(=O)NS(=O)(=O)N3CCCC3)cc2C)CC4)CCN1C [Example 270, (R)-2-fluoro-4-(8-(3-(methoxymethyl)-4-methylpiperazin-1-yl)-7,10-dimethyl-5-oxo-1,3,4,5-tetrahydro-2H-chromeno[3,4-c]pyridine-3-carbonyl)-5-methyl-N-(pyrrolidin-1-ylsulfonyl)benzamide], the IC50 [1] was 1000 to 5000 nM, the IC50 [2] was 1 to 10 nM and the “MTHFD1/MTHFD2 IC50 ratio” value [2] was “J (>30)”. It also gave an IC50 [3] of 1000 to 5000 nM.

For COC[C@H]1CN(c2cc(C)c3c4c(c(=O)oc3c2C)CN(C(=O)c2cc(N(C)C)c(C(=O)NS(=O)(=O)N(C3CC3)C3CC3)cc2F)CC4)CCN1C [Example 276, (R)-N-(N,N-dicyclopropylsulfamoyl)-2-(dimethylamino)-5-fluoro-4-(8-(3-(methoxymethyl)-4-methylpiperazin-1-yl)-7,10-dimethyl-5-oxo-1,3,4,5-tetrahydro-2H-chromeno[3,4-c]pyridine-3-carbonyl)benzamide], the IC50 [1] was 1 to 10 nM, the IC50 [2] was 10 to 100 nM and the “MTHFD1/MTHFD2 IC50 ratio” value [2] was “H (>9.0 to 30)”. It also gave an IC50 [3] of 100 to 1000 nM.
